Laboratory results as given in patent US20160206629A1, “TOPICAL COMPOSITION COMPRISING A FILM-FORMING POLYMER FOR DELIVERING AN ACTIVE INGREDIENT TO SKIN” (LEO Pharma A/S, priority 2012, published 2016).

Test: In vitro skin penetration, full thickness pig ear skin, Franz-type diffusion cells, 3H-BMV
Format: in vitro ADME
Method: To investigate the skin penetration and permeation of BMV from compositions according to example 1, a skin diffusion experiment was conducted. Full thickness skin from pig ears was used in the study. The skin was cleaned and kept frozen at −18° C. before use. On the day prior to the experiment the skin was placed in a refrigerator (5±3° C.) for slow defrosting.
Static Franz-type diffusion cells with an available diffusion area of 3.14 cm^2 and receptor volumes ranging from 8.6 to 11.1 ml were used in substantially the manner described by T. J. Franz, “The finite dose technique as a valid in vitro model for the study of percutaneous absorption in man”, in Current Problems in Dermatology, 1978, J. W. H. Mall (Ed.), Karger, Basel, pp. 58-68. The specific volume was measured and registered for each cell. A magnetic bar was placed in the receptor compartment of each cell. After mounting the skin, physiological saline (35° C.) was filled into each receptor chamber for hydration of the skin. The cells were placed in a thermally controlled water bath which was placed on a magnetic stirrer set at 300 rpm. […]
Samples (1 ml) of the receptor fluid remaining in the diffusion cell were collected and analysed.
The concentration of ^3H-BMV in the samples were determined by liquid scintillation counting.

permeation of BMV into the receptor medium (receptor medium acetate buffer pH 5.5 with 1% methyl-β-cyclodextrin): None
SMILES: CCCCC(=O)O[C@]1(C(=O)CO)[C@@H](C)C[C@H]2[C@@H]3CCC4=CC(=O)C=C[C@]4(C)[C@@]3(F)[C@@H](O)C[C@@]21C [BMV, betamethasone valerate]
accumulation of BMV in skin layers (stratum corneum versus epidermis, FIG. 3): mainly accumulated in the stratum corneum
